From US20190054051A1, “DOPA Formulations for Treatments of Parkinson's Disease” (The Board of Trustees of the Leland Stanford Junior …, priority 2017, published 2019)

Columns and labels:
hemiparkinsonian mice = assay: Abnormal Involuntary Movements (AIMs) after chronic L-DOPA, Example 5; type: in vivo; settings: daily L-DOPA (mixed with benserazide) injections, post-testing 15 days
Experimental: Mice were anesthetized with 5% isoflurane (Isothesia, Henry Schein Animal Health, Dublin, Ohio) in 100% oxygen with a delivery rate of 51/minute until loss of righting reflex and mounted on a stereotaxis. The anesthesia was maintained with 1 to 1.5% isoflurane throughout the surgical procedure. Body temperature was maintained using heating pads; respiration was monitored every 10 minutes. Mice were treated with desipramine HCl (25 mg/kg i/p) 30 minutes before the infusion of 6-hydroxydopamine (6-OHDA). […]
Measurement of Abnormal Involuntary Movements (AIMs) were quantified after chronic L-DOPA administration in hemiparkinsonian mice. In the pretesting sessions, mice were given daily injections of L-DOPA/benserazide (5/10 mg/Kg s/c) for 9 days; AIMs were assessed every 20 minutes for 3 hrs after injection every third day of L-DOPA injections. Total duration of contralateral abnormal movements of the tongue-orofacial muscles and forelimb, twisting of the body (dystonia), and locomotor (rotational) behavior were scored, as illustrated in FIG. 6E. […] After five days' rest, in the post-test phase, mice were administered DOPA-benserazide or one of the four ranitidine formulations (Form IA, IB, IIA, or IIB, as defined above) daily for 15 days; AIMs were again assessed every third day.
Western blots were quantified using band densitometry in Image J software (NIH version). […]

pERK, ChAT and H2R = assay: Immunohistochemical co-localization of pERK, ChAT and H2R in striatum; type: in vivo, mice; settings: lesioned striatum
Experimental: Immunohistochemical analysis was performed with commonly known procedures. Mice were transcardially perfused with ice-cold 4% paraformaldehyde in PBS 45 minutes after challenge with L-DOPA or DOPA-ranitidine formulations. The brain was dissected out, post-fixed in 4% PFA overnight at 4° C., and cryoprotected using 30% sucrose in PBS. Cryoprotected brains were stored at -80° C. For TH immunostaining 30 μm coronal sections were taken around both CPu and substantia nigra, to examine dopaminergic denervation at the level of striatum and neuronal cell body loss at the level of substantia nigra. For pERK, ChAT, FoxP and AFos B expression, only coronal sections at the level of striatum was used. Free-floating coronal sections were blocked in blocking buffer (PBS with 2% BSA, 0.3% TritonX-100) for 1 hr at room temperature with gentle rocking. Sections were then transferred to incubation solution (PBS with 1% BSA, 0.03% TritonX-100) and the respective primary antibody as shown in table 1 and incubated at 4° C. for 24-48 hrs with gentle shaking. The sections were mounted with fluorescein or DAPI containing mounting media and serial z stack images were taken using Zeiss laser scanning confocal microscope LSM 800 at Stanford Cell Sciences Imaging facility. […]

animal models of PD = settings: previously reported; cited from earlier work

Row | AIMs over the course of daily administration (hemiparkinsonian mice) | Compound | triple labeling of pERK, ChAT and H2R (pERK, ChAT and H2R) | L-DOPA induced dyskinesia (dyskinetic behavior following DOPA treatment) (animal models of PD)
1 | increasing AIMs | N[C@@H](Cc1ccc(O)c(O)c1)C(=O)O [L-DOPA, L-3,4-dihydroxyphenylalanine] | Occasional triple labeling | 
2 |  | CN/C(=C\[N+](=O)[O-])NCCSCc1ccc(CN(C)C)o1 [Ranitidine, N-(2-[(5-[(dimethylamino)methyl]furan-2-yl)methylthio]ethyl)-N′-methyl-2-nitroethene-1,1-diamine] |  | suppress LID
